From patent US20230203058A1, “MACROCYCLIC DIAMINE DERIVATIVES AS ENT INHIBITORS FOR THE TREATMENT OF CANCERS, AND COMBINATION THEREOF WITH ADENOSINE RECEPTOR ANTAGONISTS” (ITEOS BELGIUM SA, priority 2020, published 2023) come the findings set out here.

The test system of assay [1] is naive CD4+ T cells cultured with allogeneic monocyte-derived dendritic cells. The assay is described as follows: Mixed leukocyte reaction assay (FIG. 2). The conditions noted are these: 300 µM ATP; for Rescue of proliferation of naive CD4 T cells in MLR / IFNγ production in MLR: Compound 2 50 nM; for Rescue of proliferation of naive CD4 T cells in MLR: Compound 11 500 nM; for IFNγ production in MLR: Compound 11 500 nM (FIG. 2B). The class given is cell-based, human. As to the method: FIG. 2A depicts a bar graph of percent proliferation normalized to no ATP. Naive CD4^+ T cells were cultured with allogeneic monocyte-derived dendritic cells at a ratio of 10:1 for 96 h in the presence of 300 µM ATP as a source of adenosine and the molecules Compound 2 (50 nM), Compound 11 (500 nM) or concentration-matched DMSO. Proliferation of T cells was assessed by CFSE dilution and normalized to the level observed in T cells activated in the absence of ATP.
FIG. 2B depicts two bar graphs, one showing TNF concentration (pg/mL), and the other showing IFNy (pg/mL). Experiment performed as described in FIG. 2A and supernatant sampled for analysis of cytokines by alphaLISA. **** = p < 0.0001; *** = p < 0.001; ** = p < 0.01 and * = p < 0.05; derived from one-way ANOVA with Tukey’s multiple comparisons test.
PBMCs were isolated from buffy coats via centrifugation of fresh whole blood over Lymphoprep using SepMate-50 tubes (both from […] Technologies) according to the manufacturer’s instructions. Naive CD4^+ T cells were isolated from the PBMCs using the Naive CD4^+ T cell Isolation Kit II, human (Miltenyi Biotec) according to the manufacturer’s instructions and cryopreserved in FBS with 10% DMSO until required. CD14^+ monocytes were also isolated from the PBMC samples using CD14 MicroBeads, human (MiltenyiBiotec) according to the manufacturer’s instructions and used on the day of isolation.
Monocytes were resuspended in RPMI (Lonza) with 10% FBS and cultured in a humidified incubator at 37° C. with 5% CO2 for 6 days in the presence of GM-CSF and IL-4 (R&D Systems), each at 50 ng/ml in 24 well plates. On day 3 of culture half of the medium was carefully removed and replaced with fresh medium containing 100 ng/ml of GM-CSF and IL-4.
On day 6 of culture monocyte-derived dendritic cells (MoDCs) were harvested and washed into X-VIVO15 medium containing 5% human male AB serum (Biowest) and 1 mM sodium pyruvate (Lonza). Naive CD4^+ T cells from a different donor were thawed and CFSE-labelled as described above and washed into the same medium as the MoDCs. Finally, 1 × 10^4 MoDCs were cultured with 1 × 10^5 naive CD4^+ T cells in the presence of ATP (Sigma-Aldrich), uridine or uracil in 96 round well bottom plates for 72 h in a humidified incubator at 37° C. with 5% CO2.
Analysis of proliferation of CD4 T cells via CSFE dilution was performed by flow cytometry using a BD LSR Fortessa with data analysis on FlowJo (BD Biosciences). Cytokines were analysed by alphaLISA (Perkin Elmer) according to the manufacturer’s instructions.

The test system of assay [2] is human T cells. Description: T cell stimulation assay (Example III, FIG. 1). The following applies: ATP 100 µM. It counts as cell-based. How it is done: FIG. 1A depicts a graph of log concentration (M) versus percent proliferation. Purified human T cells were activated with anti-CD3/CD28 dynabeads in the presence of ATP (100 µM) as a source of adenosine for 96 h and then proliferation was assessed by CFSE dilution.
FIG. 1B depicts a graph of log concentration of ENT1 inhibitor (M) versus percent proliferation. Experiment performed as in FIG. A with the addition of HSA and AAG to the culture medium (final concentration 2 and 0.1%, respectively).
Peripheral blood mononuclear cells (PBMCs) were first isolated via centrifugation of fresh whole blood over Lymphoprep using SepMate-50 tubes (both from […] Technologies) according to the manufacturer’s instructions. Human T cells were then isolated from the PBMCs using the EasySep Human T cell Isolation Kit ([…] Technologies) according to the manufacturer’s instructions and the cells were cryopreserved in FBS with 10% DMSO until required.
Cryopreserved human T cells were thawed on the day of the experiment and resuspended in PBS with 10% FBS at approximately 1 × 10^7 cells/ml. This cell suspension was diluted 1:1 with 2 µM CFSE solution (ThermoFisher Scientific) in PBS and incubated for 5 minutes at room temperature. The labelling reaction was quenched by further addition of PBS with 10% FBS, and then the cells were washed into X-VIVO15 medium (Lonza) for use in the T cell assay.
CFSE-labelled T cells were plated at 2 × 10^4 cells per well in 384 well plates in the presence of ATP (100 µM, Sigma-Aldrich) as a source of adenosine. Activation was driven by the addition of Dynabeads Human T-Activator CD3/CD28 (ThermoFisher Scientific) at a ratio of 0,5 beads per T cell. ENT1 inhibitor molecules including the reference molecule dilazep (Tocris Bioscience) were added, the volume of the wells was adjusted to 50 µl with X-VIVO15 medium and the plates were cultured in a humidified incubator for 96 h at 37° C. with 5% CO2. In some experiments the culture was supplemented with human serum albumin (HSA) and alpha-1-acid glycoprotein (AAG, both Sigma-Aldrich) at final concentrations of 2 and 0,1%, respectively.
Analysis of proliferation via CSFE dilution was performed by flow cytometry using a BD LSR Fortessa with data analysis on FlowJo (BD Biosciences).

Setting [3] is: anti-CD3/CD28 dynabeads, 96 h (FIG. 1A), read-out: IC50 of restoration of T cell proliferation.
[4] abbreviates: with HSA 2% and AAG 0,1% (FIG. 1B), read-out: IC50 of restoration of T cell proliferation under high protein binding conditions.

Where two headings read alike, the source gives them in different places.

Turning to `COc1cc(C(=O)O[C@H]2CCCOc3cc(cc(OC)c3OC)C(=O)OCCCN3CCCN(CC2)CC3)cc(OC)c1OC` [Compound 2, (12S)-74,75-dimethoxy-6-oxo-5,8-dioxa-1(1,4)-diazepana-7(1,3)-benzenacyclotetradecaphane-12-yl 3,4,5-trimethoxybenzoate], the “Production of TNF in MLR” value in assay [1] (Compound 2 50 nM (FIG. 2B)) is recorded as “clear restoration with Compound 2, even beyond the control level”. Also, in assay [1], the “Rescue of proliferation of naive CD4 T cells in MLR” value is listed as “near complete rescue”; the “IFNγ production in MLR” value is “significant and consistent increase”. The IC50 in assay [2] (setting [3]) worked out at 0.3 nM. Also, the IC50 in assay [2] (setting [4]) was found to be 2 nM.

For `COc1cc(C(=O)OC2CCCOc3cc(cc(OC)c3OC)C(=O)N(C)CCCN3CCCN(CC2)CC3)cc(OC)c1OC` (stereo not drawn) [Compound 11, 74,75-dimethoxy-5-methyl-6-oxo-8-oxa-5-aza-1(1,4)-diazepana-7(1,3)-benzenacyclotetradecaphane-12-yl 3,4,5-trimethoxybenzoate], in assay [1], the “Rescue of proliferation of naive CD4 T cells in MLR” value is “weaker restoration” and the “IFNγ production in MLR” value is given as “smaller effect”. For the same molecule, in assay [2] (setting [3]), the IC50 turned out to be 7 nM. The IC50 in assay [2] (setting [4]) was 125 nM.
